Tested on: HeLa cancer cells and near normal Li-Fraumeni fibroblasts
Assay: False-positive studies (cell confluency, serum starvation)
Type: cell-based, human
Description: The in vitro models comprised seven cellular systems. […] The same cellular system was used at early passages that underwent SIPS upon y-irradiation and was compared in relation to non-irradiated counterparts. Another set of models comprised two inducible Saos2 Tet-ON osteosarcoma cell lines carrying p53 and p21^WAF1/Cip1, respectively, two well established effectors of senescence (Georgakopoulou et al., 2013; Galanos et al., 2016). Finally, the U2OS-E2F1 ER, U205-Cdt1 Tet-ON and HBECs-Cdc6 Tet-ON inducible systems that undergo SIPS due to oncogenic stress signals were also utilized (Petrakis et al., 2016; Liontos et al., 2007; Liontos et al., 2009). Parental cell lines were obtained either directly from ATCC or from collaborating laboratories that generated them. In addition, the human cancer cell line HeLa and near normal Li-Fraumeni fibroblasts (Galanos et al., 2016) were also employed as control cell lines for the specificity of staining of the SBB compounds.

CC1(COC(=O)CCCC[C@H]2SC[C@H]3NC(=O)N[C@H]32)Nc2cccc3c(/N=N/c4ccc(/N=N/c5ccccc5)c5ccccc45)ccc(c23)N1 (stereo partly drawn) [LG13, (2-methyl-6-((E)-(4-((E)-phenyldiazenyl)naphthalen-1-yl)diazenyl)-2,3-dihydro-1H-perimidin-2-yl)methyl 5-((3aR,4R,6aS)-2-oxohexahydro-1H-thieno[3,4-d]imidazol-4-yl)pentanoate]
staining under cell confluency (HeLa and Li-Fraumeni fibroblasts, FIG. 17): Negative | staining of serum starved HeLa cells after formalin fixing and paraffin embedding (cell block, FIG. 18): negative | false-positive staining due to serum starvation and cell confluency (compared with SA-b-gal, FIGS. 17 and 18): deprived of the false-positive staining disadvantages | staining after serum starvation (in comparison to SA-β-gal that gave positive signal, FIG. 18): Negative

— US11034839B2, “Compounds, linked with haptens, for the detection of senescent cells” (THE UNIVERSITY OF MANCHESTER, priority 2016, dated 2021)
